Data published in article PMC6099663, “Structure–Activity Relationship of the Tyrosinase Inhibitors Kuwanon G, Mulberrofuran G, and Albanol B from Morus Species: A Kinetics and Molecular Docking Study” (Molecules : A Journal of Synthetic Chemistry and Natural …, 2018).
Like-named read-outs stand apart in the source and are kept apart here. Blank lines part the entries; values can stand above or below the compound they belong to.

What was measured:
mushroom tyrosinase [1] = molecular target: T1, mushroom tyrosinase (Agaricus bisporus, UniProt C7FF04); assay: Mushroom tyrosinase inhibitory assay, L-tyrosine oxidation (monophenolase activity); type: biochemical; parameters: purchased Sigma-Aldrich Co. (St. Louis, MO, USA)
Procedure: (§1) Briefly, 10 µL of a specified concentration of each sample solution (1–500 µg/mL) in 10% dimethyl sulfoxide and 20 µL of mushroom tyrosinase (1000 Units/mL) in a 50 mM phosphate buffer (pH 6.5) were added to 170 µL of an assay mixture in a 96-well microplate. […] The reaction mixtures were incubated at 25 °C for 15 s. The absorbance of the mixture at 490 nm was measured using a microplate reader. […] One unit (U) of enzymatic activity referred to the amount of an enzyme capable of converting 1 µM of the L-tyrosine/L-DOPA reaction mixture within 1 min at 280 nm under the specific conditions (25 °C, optimum conditions).

mushroom tyrosinase [2] = molecular target: T1, mushroom tyrosinase; assay: Mushroom tyrosinase inhibitory assay, L-DOPA oxidation (diphenolase activity); type: biochemical; parameters: purchased Sigma-Aldrich Co. (St. Louis, MO, USA); conditions: L-DOPA substrate (diphenolase), 25 °C, pH 6.5, mean ± SEM of triplicate
Procedure: as §1

tyrosinase = conditions: cited from earlier work
mushroom tyrosinase [3] = molecular target: T1, mushroom tyrosinase; assay: Enzyme kinetic analysis with tyrosinase (Lineweaver-Burk and Dixon plots, L-tyrosine substrate); type: biochemical; conditions: for Inhibition Mode: Lineweaver–Burk plot, L-tyrosine substrate (monophenolase)
Procedure: Kinetic analysis was employed to verify the inhibitory activity of the active compounds and identify the type of inhibition. KG and MG were potent tyrosinase inhibitors as analyzed by Lineweaver–Burk and Dixon plots (Figure 3 and Figure 4). Different concentrations of the substrate (L-tyrosine, 1.0, 0.5, and 0.25 mM) along with the various concentrations of KG (10, 50, and 100 µM) and MG ([…]) were analyzed. […] The Ki values represent the concentrations required to form an enzyme inhibitor complex, so inhibitors with lower Ki values indicate greater tyrosinase inhibition activity for the development of prophylactic and therapeutic agents.
We observed the sample activity by decreasing the L-tyrosine (1.0, 0.5, and 0.25 mM) substrate concentration to determine the tyrosinase inhibitory mechanism. The reaction mixture consisted of a 20 µL test sample at the following test concentrations: 1.6, 8, and 16 µM for MG; 10, 50, and 100 µM for KG. Tyrosinase inhibition was determined at various concentrations of L-tyrosine substrate (1.0, 0.5, and 0.25 mM) in the absence or presence of the test compound concentrations (1.6, 8, and 16 µM for MG; 10, 50, and 100 µM for KG) using Lineweaver-Burk double reciprocal plots that determine enzyme kinetic parameters including Km and Vmax. The enzymatic procedures consisted of the previously described tyrosinase assay methods. The inhibition constant (Ki) was determined from the interpretation of Dixon plots.

mushroom tyrosinase [4] = molecular target: mushroom tyrosinase; parameters: method as in ref 12 (Zheng et al.); conditions: L-tyrosine substrate; ref 12 (Zheng et al.); read-out: IC50, L-tyrosine oxidation (monophenolase); cited from earlier work
mushroom tyrosinase [5] = molecular target: mushroom tyrosinase; parameters: method as in ref 13 (Chaita et al.); conditions: L-DOPA substrate; ref 13 (Chaita et al.); read-out: IC50, mushroom tyrosinase via the L-DOPA pathway; cited from earlier work
B16F10 cells = system: B16F10 cells; parameters: method as in PMID 25819153; conditions: 150 µM; cited from earlier work
[6] = L-tyrosine substrate (monophenolase), 25 °C, pH 6.5, mean ± SEM of triplicate, read-out: IC50 (μM) Value L-Tyrosine
[7] = read-out: IC50 (μM) Value L-DOPA

T1 sequence (C7FF04 2-392): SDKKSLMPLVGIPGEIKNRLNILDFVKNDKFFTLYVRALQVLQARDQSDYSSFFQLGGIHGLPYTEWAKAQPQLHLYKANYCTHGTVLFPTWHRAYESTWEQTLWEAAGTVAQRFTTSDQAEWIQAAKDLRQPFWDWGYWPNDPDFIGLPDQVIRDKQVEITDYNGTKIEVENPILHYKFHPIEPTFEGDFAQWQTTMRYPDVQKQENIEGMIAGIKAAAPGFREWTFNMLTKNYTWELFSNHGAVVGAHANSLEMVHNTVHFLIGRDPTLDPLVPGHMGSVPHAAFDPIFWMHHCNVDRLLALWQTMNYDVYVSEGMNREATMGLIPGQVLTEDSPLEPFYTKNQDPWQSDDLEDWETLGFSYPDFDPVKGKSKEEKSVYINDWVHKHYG

IC50 (mushroom tyrosinase [1]; [6]): > 1000 µM
IC50 (mushroom tyrosinase [2]; [7]): > 1000 µM
Compound: CC1=CCCCC1 [1-Methyl-1-cyclohexene, reference compound]

Compound: Cc1cc2c3c(c1)-c1c(O)cc(-c4cc5ccc(O)cc5o4)cc1OC3(c1ccc(O)cc1O)Oc1cc(O)ccc1-2 (centres unmarked) [Albanol B]
IC50 (μM) Value L-Tyrosine (mushroom tyrosinase [1]; L-tyrosine substrate (monophenolase), 25 °C, pH 6.5, mean ± SEM of triplicate): inactive
IC50 (mushroom tyrosinase [1]; [6]): > 350 µM
IC50 (μM) Value L-DOPA (mushroom tyrosinase [2]): inactive
IC50 (mushroom tyrosinase [2]; [7]): > 350 µM

Compound: O=C(O)/C=C/c1ccccc1 [Cinnamic acid]
inhibition type toward tyrosinase (tyrosinase; interacted with secondary binding sites when catalytic pocket occupied with tropolone, ref 34 (Hassani et al.)): mixed type inhibitor

Compound: O=c1cc(CO)occ1O [Kojic acid]
inhibition type toward tyrosinase (tyrosinase): selective competitive inhibitor

Compound: CC(C)=CCc1c(-c2ccc(O)cc2O)oc2c(C3C=C(C)CC(c4ccc(O)cc4O)C3C(=O)c3ccc(O)cc3O)c(O)cc(O)c2c1=O (centres unmarked) [Kuwanon G]
Ki (mushroom tyrosinase [3]): 18.7 µM
Inhibition Mode (mushroom tyrosinase [3]): Competitive
IC50 (mushroom tyrosinase [4]): > 200 µM
IC50 (mushroom tyrosinase [5]): 27.2 µM
IC50 (mushroom tyrosinase [1]): 67.6 ± 2.11 µM
IC50 (mushroom tyrosinase [2]; IC50 (μM) Value L-DOPA): 44 µM

Ki (mushroom tyrosinase [3]; Dixon plot, L-tyrosine substrate, read-out: Inhibition Constant (Ki)): 5.19 µM
Inhibition Mode (mushroom tyrosinase [3]): Competitive
IC50 (mushroom tyrosinase [1]; [6]): 6.35 ± 0.45 µM
IC50 (mushroom tyrosinase [2]; [7]): 106 µM
Compound: CC1=C[C@H]2c3c(O)cc(-c4cc5ccc(O)cc5o4)cc3O[C@@]3(c4ccc(O)cc4O)Oc4cc(O)ccc4[C@H](C1)[C@@H]23 [Mulberrofuran G]
IC50 (mushroom tyrosinase [4]): 17.5 µM

Compound: C=C1CC/C=C(\C)CC[C@@H]2[C@@H]1CC2(C)C [β-caryophyllene]
intracellular tyrosinase activity (B16F10 cells): decreased
